Experimental data taken from patent US20150366966A1, “Stable Aqueous Solution” (SENJU PHARMACEUTICAL CO., LTD., priority 2013, published 2015).

How the values were obtained:
[1] = Light stability of compound A in aqueous solution (residual ratio by HPLC after white light irradiation); assay type: physicochemical
Procedure: An aqueous solution of compound A was prepared according to the following formulation. In 0.1% phosphate buffer was added a predetermined amount of tyloxapol, octoxynol, polysorbate 80, HCO-60 or MYS-40, and the mixture was adjusted to […] with sodium hydroxide. Compound A in the predetermined amount in the following formulation was dissolved in said solution, and the mixture was sterilized by filtration with a 0.22 μm membrane filter, and filled in a 5 mL colorless glass ampoule. Using a photostability testing device (model: LT-120A-WCD, manufactured by Nagano Science Co., Ltd.), the ampoule was exposed to white light (total illumination 12000 lux·h and 24000 lux·h), and the content of compound A in the glass ampoule was measured.
Compound A after storage was quantified by high performance liquid chromatography using the absolute calibration curve method (the Japanese Pharmacopoeia). […]
An aqueous solution of compound A was prepared according to the following formulation. […] The glass ampoule was placed, under light irradiation conditions and storage conditions at 80° C. for 1 week, and the content of each compound A was measured. Compound A was quantified in the same manner as in Experimental Example 1 and Experimental Example 2.

PPARδ = target: T1, PPARδ (Homo sapiens, UniProt Q03181); conditions: reported in WO 03/033493 and WO 2008/143254; cited from earlier work
T1 sequence (Q03181 1-441): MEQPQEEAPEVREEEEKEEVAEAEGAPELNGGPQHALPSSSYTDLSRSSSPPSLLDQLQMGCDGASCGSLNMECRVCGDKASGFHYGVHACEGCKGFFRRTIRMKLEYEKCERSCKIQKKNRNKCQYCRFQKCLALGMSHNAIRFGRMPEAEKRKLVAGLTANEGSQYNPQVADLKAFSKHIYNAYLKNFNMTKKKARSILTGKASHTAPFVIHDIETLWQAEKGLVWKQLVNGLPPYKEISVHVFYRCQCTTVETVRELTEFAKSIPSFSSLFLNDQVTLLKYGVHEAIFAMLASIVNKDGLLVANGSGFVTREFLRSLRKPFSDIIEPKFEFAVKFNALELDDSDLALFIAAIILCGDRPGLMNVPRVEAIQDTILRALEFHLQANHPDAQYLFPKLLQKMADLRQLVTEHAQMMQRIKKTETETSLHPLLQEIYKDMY

[2] = Solubility of compound A in water; assay type: physicochemical
Procedure: This has already been shown by the fact that the heat stability of compound A in an aqueous solution decreases extremely when polysorbate 80 conventionally widely used as a solubilizer of poorly soluble drugs is added (see below-mentioned Experimental Example 2, Comparative Example 1).

**Q.** For `Cc1cc2c(CCc3sc(-c4ccc(C(F)(F)F)cc4)nc3C(C)C)noc2cc1OCC(=O)O` [Compound A, (3-{2-[4-isopropyl-2-(4-trifluoromethyl)phenyl-5-thiazolyl]ethyl}-5-methyl-1,2-benzisoxazol-6-yl)oxyacetic acid], which “stability to light in aqueous solution (in words)” value [1] is on record?
**A.** The value was “extremely unstable to light in an aqueous solution”.

**Q.** And the “PPARδ agonist action (in words)” value (PPARδ)?
**A.** Its value is “PPARδ agonist”.

**Q.** And the “solubility in water (in words)” value [2]?
**A.** Its value is “practically insoluble in water”.
